Assay results reported in patent US20260262643A1, “HERBICIDAL BENZOXAZINES” (FMC CORPORATION, priority 2022, published 2026).

Legend:
barnyardgrass [1] = experiment: Test C preemergence; format: in vivo, Echinochloa crusgalli; conditions: preemergence, 0 to 100 scale (0 no effect, 100 complete control)
Method in brief: (§1)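 Visual injury score, 0–100 (100 = complete control), taken 10 days after treatment relative to untreated controls. Pre: directed spray onto soil over sown seeds. Post: foliar spray at one- to two-leaf stage, 2–10 cm. Solvent/surfactant formulation; loam–sand soil; greenhouse.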

blackgrass [2] = experiment: Test C preemergence; format: in vivo, Alopecurus myosuroides; conditions: preemergence, 0 to 100 scale (0 no effect, 100 complete control)
Method in brief: as §1

corn [3] = experiment: Test C preemergence; format: in vivo, Zea mays; conditions: preemergence, 0 to 100 scale (0 no effect, 100 complete control)
Method in brief: as §1

green foxtail [4] = experiment: Test C preemergence; format: in vivo, Setaria viridis; conditions: preemergence, 0 to 100 scale (0 no effect, 100 complete control)
Method in brief: as §1

kochia [5] = experiment: Test C preemergence; format: in vivo, Bassia scoparia; conditions: preemergence, 0 to 100 scale (0 no effect, 100 complete control)
Method in brief: as §1

oat, wild [6] = experiment: Test C preemergence; format: in vivo, Avena fatua; conditions: preemergence, 0 to 100 scale (0 no effect, 100 complete control)
Method in brief: as §1

pigweed, palmer [7] = experiment: Test C preemergence; format: in vivo, Amaranthus palmeri; conditions: preemergence, 0 to 100 scale (0 no effect, 100 complete control)
Method in brief: as §1

ragweed [8] = experiment: Test C preemergence; format: in vivo, Ambrosia artemisiifolia; conditions: preemergence, 0 to 100 scale (0 no effect, 100 complete control)
Method in brief: as §1

ryegrass, Italian [9] = experiment: Test C preemergence; format: in vivo, Lolium multiflorum; conditions: preemergence, 0 to 100 scale (0 no effect, 100 complete control)
Method in brief: as §1

soybean [10] = experiment: Test C preemergence; format: in vivo, Glycine max; conditions: preemergence, 0 to 100 scale (0 no effect, 100 complete control)
Method in brief: as §1

wheat [11] = experiment: Test C preemergence; format: in vivo, Triticum aestivum; conditions: preemergence, 0 to 100 scale (0 no effect, 100 complete control)
Method in brief: as §1

barnyardgrass [12] = experiment: Test C postemergence; format: in vivo, Echinochloa crusgalli; conditions: postemergence, 10 days
Method in brief: as §1

blackgrass [13] = experiment: Test C postemergence; format: in vivo, Alopecurus myosuroides; conditions: postemergence, 10 days
Method in brief: as §1

corn [14] = experiment: Test C postemergence; format: in vivo, Zea mays; conditions: postemergence, 10 days
Method in brief: as §1

green foxtail [15] = experiment: Test C postemergence; format: in vivo, Setaria viridis; conditions: postemergence, 10 days
Method in brief: as §1

kochia [16] = experiment: Test C postemergence; format: in vivo, Bassia scoparia; conditions: postemergence, 10 days
Method in brief: as §1

oat, wild [17] = experiment: Test C postemergence; format: in vivo, Avena fatua; conditions: postemergence, 10 days
Method in brief: as §1

pigweed, palmer [18] = experiment: Test C postemergence; format: in vivo, Amaranthus palmeri; conditions: postemergence, 10 days
Method in brief: as §1

ragweed [19] = experiment: Test C postemergence; format: in vivo, Ambrosia artemisiifolia; conditions: postemergence, 10 days
Method in brief: as §1

ryegrass, Italian [20] = experiment: Test C postemergence; format: in vivo, Lolium multiflorum; conditions: postemergence, 10 days
Method in brief: as §1

soybean [21] = experiment: Test C postemergence; format: in vivo, Glycine max; conditions: postemergence, 10 days
Method in brief: as §1

wheat [22] = experiment: Test C postemergence; format: in vivo, Triticum aestivum; conditions: postemergence, 10 days
Method in brief: as §1

galium = experiment: Test C postemergence; format: in vivo, Galium aparine; conditions: postemergence, 10 days
Method in brief: as §1

horseweed = experiment: Test C postemergence; format: in vivo, Erigeron canadensis; conditions: postemergence, 10 days
Method in brief: as §1

barnyardgrass [23] = experiment: Test D flooded paddy test; format: in vivo, Echinochloa crus-galli; conditions: 250 g ai/ha, applied to paddy water, visual rating after 13 to 14 days, scale 0 to 100 (0 no effect, 100 complete control)
Method in brief: (§2)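 Plants at the 2-leaf stage were grown in pots flooded to 3 cm, and compound was applied directly into the paddy water, with depth kept throughout. After 13–14 days in a greenhouse, injury was rated visually against untreated controls on a 0–100 scale (100 = complete control); a dash means not tested.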

ducksalad = experiment: Test D flooded paddy test; format: in vivo, Heteranthera limosa; conditions: 250 g ai/ha, applied to paddy water, visual rating after 13 to 14 days, scale 0 to 100 (0 no effect, 100 complete control)
Method in brief: as §2

rice = experiment: Test D flooded paddy test; format: in vivo, Oryza sativa; conditions: 250 g ai/ha, applied to paddy water, visual rating after 13 to 14 days, scale 0 to 100 (0 no effect, 100 complete control)
Method in brief: as §2

sedge, umbrella = experiment: Test D flooded paddy test; format: in vivo, Cyperus difformis; conditions: 250 g ai/ha, applied to paddy water, visual rating after 13 to 14 days, scale 0 to 100 (0 no effect, 100 complete control)
Method in brief: as §2

[24] = 125 g ai/ha, 0 to 100 scale, 0 no effect, 100 complete control
[25] = 500 g ai/ha, 0 to 100 scale (0 no effect, 100 complete control)

For `Cc1ccc(-n2cnc(C(C)C)n2)cc1C(=O)N1CC(C(F)(F)F)Oc2c(Cl)cccc21` (single isomer, unassigned) [Compound 291], the “Barnyardgrass plant response rating” value (barnyardgrass [1]; 500 g ai/ha) was 100, the “Barnyardgrass plant response rating” value (barnyardgrass [1]; Test C, 125 g ai/ha) was 100 and the “Blackgrass plant response rating” value (blackgrass [2]; 500 g ai/ha) was 70. For the same molecule, the “Blackgrass plant response rating” value (blackgrass [2]; Test C, 125 g ai/ha) was 50, the “Corn plant response rating” value (corn [3]; 500 g ai/ha) was 50 and the “Corn plant response rating” value (corn [3]; Test C, 125 g ai/ha) was 30. The “Foxtail, Green plant response rating” value (green foxtail [4]; 500 g ai/ha) was 100, the “Foxtail, Green plant response rating” value (green foxtail [4]; Test C, 125 g ai/ha) was 100 and the “Kochia plant response rating” value (kochia [5]; 500 g ai/ha) was 100. The “Kochia plant response rating” value (kochia [5]; Test C, 125 g ai/ha) was 80, the “Oat, Wild plant response rating” value (oat, wild [6]; 500 g ai/ha) was 80 and the “Oat, Wild plant response rating” value (oat, wild [6]; Test C, 125 g ai/ha) was 60. For the same molecule, the “Pigweed, Palmer plant response rating” value (pigweed, palmer [7]; 500 g ai/ha) was 100, the “Pigweed, Palmer plant response rating” value (pigweed, palmer [7]; Test C, 125 g ai/ha) was 100 and the “Ragweed plant response rating” value (ragweed [8]; 500 g ai/ha) was 60. For the same molecule, the “Ragweed plant response rating” value (ragweed [8]; Test C, 125 g ai/ha) was 40, the “Ryegrass, Italian plant response rating” value (ryegrass, Italian [9]; 500 g ai/ha) was 100 and the “Ryegrass, Italian plant response rating” value (ryegrass, Italian [9]; Test C, 125 g ai/ha) was 90. The “Soybean plant response rating” value (soybean [10]; 500 g ai/ha) was 100, the “Soybean plant response rating” value (soybean [10]; Test C, 125 g ai/ha) was 90 and the “Wheat plant response rating” value (wheat [11]; 500 g ai/ha) was 50. For the same molecule, the “Wheat plant response rating” value (wheat [11]; Test C, 125 g ai/ha) was 30, the “Plant response rating, Barnyardgrass” value (barnyardgrass [12]; [24]) was 30 and the “Plant response rating, Barnyardgrass” value (barnyardgrass [12]; [25]) was 90. For the same molecule, the “Plant response rating, Blackgrass” value (blackgrass [13]; [24]) was 0, the “Plant response rating, Blackgrass” value (blackgrass [13]; [25]) was 50 and the “Plant response rating, Corn” value (corn [14]; [24]) was 20. The “Plant response rating, Corn” value (corn [14]; [25]) was 80, the “Plant response rating, Foxtail, Green” value (green foxtail [15]; [24]) was 30 and the “Plant response rating, Foxtail, Green” value (green foxtail [15]; [25]) was 90. The “Plant response rating, Kochia” value (kochia [16]; [24]) was 90, the “Plant response rating, Kochia” value (kochia [16]; [25]) was 100 and the “Plant response rating, Oat, Wild” value (oat, wild [17]; [24]) was 50. The “Plant response rating, Oat, Wild” value (oat, wild [17]; [25]) was 80, the “Plant response rating, Pigweed, Palmer” value (pigweed, palmer [18]; [24]) was 100 and the “Plant response rating, Pigweed, Palmer” value (pigweed, palmer [18]; [25]) was 100. The “Plant response rating, Ragweed” value (ragweed [19]; [24]) was 70, the “Plant response rating, Ragweed” value (ragweed [19]; [25]) was 80 and the “Plant response rating, Ryegrass, Italian” value (ryegrass, Italian [20]; [24]) was 70. For the same molecule, the “Plant response rating, Ryegrass, Italian” value (ryegrass, Italian [20]; [25]) was 80, the “Plant response rating, Soybean” value (soybean [21]; [24]) was 90 and the “Plant response rating, Soybean” value (soybean [21]; [25]) was 100. The “Plant response rating, Wheat” value (wheat [22]; [24]) was 30, the “Plant response rating, Wheat” value (wheat [22]; [25]) was 70 and the “Plant response rating, Galium” value (galium; [24]) was 100. For the same molecule, the “Plant response rating, Galium” value (galium; [25]) was 100, the “Plant response rating, Horseweed” value (horseweed; [24]) was 60 and the “Plant response rating, Horseweed” value (horseweed; [25]) was 60. For the same molecule, the “Plant response rating, Barnyardgrass (Flood)” value (barnyardgrass [23]) was 40, the “Plant response rating, Ducksalad (Flood)” value (ducksalad) was 45 and the “Plant response rating, Rice (Flood)” value (rice) was 0. The “Plant response rating, Sedge, Umbrella (Flood)” value (sedge, umbrella) was 95.
For `Cc1ccc(-n2cnc(C(C)C)n2)cc1C(=O)N1CC(C(F)(F)F)Oc2c(Cl)cccc21` (single isomer, unassigned) [Compound 292], the “Barnyardgrass plant response rating” value (barnyardgrass [1]; 500 g ai/ha) was 90, the “Barnyardgrass plant response rating” value (barnyardgrass [1]; Test C, 125 g ai/ha) was 20 and the “Blackgrass plant response rating” value (blackgrass [2]; 500 g ai/ha) was 90. The “Blackgrass plant response rating” value (blackgrass [2]; Test C, 125 g ai/ha) was 30, the “Corn plant response rating” value (corn [3]; 500 g ai/ha) was 10 and the “Corn plant response rating” value (corn [3]; Test C, 125 g ai/ha) was 10. For the same molecule, the “Foxtail, Green plant response rating” value (green foxtail [4]; 500 g ai/ha) was 100, the “Foxtail, Green plant response rating” value (green foxtail [4]; Test C, 125 g ai/ha) was 90 and the “Kochia plant response rating” value (kochia [5]; 500 g ai/ha) was 60. The “Kochia plant response rating” value (kochia [5]; Test C, 125 g ai/ha) was 30, the “Oat, Wild plant response rating” value (oat, wild [6]; 500 g ai/ha) was 80 and the “Oat, Wild plant response rating” value (oat, wild [6]; Test C, 125 g ai/ha) was 40. For the same molecule, the “Pigweed, Palmer plant response rating” value (pigweed, palmer [7]; 500 g ai/ha) was 100, the “Pigweed, Palmer plant response rating” value (pigweed, palmer [7]; Test C, 125 g ai/ha) was 100 and the “Ragweed plant response rating” value (ragweed [8]; 500 g ai/ha) was 20. The “Ragweed plant response rating” value (ragweed [8]; Test C, 125 g ai/ha) was 20, the “Ryegrass, Italian plant response rating” value (ryegrass, Italian [9]; 500 g ai/ha) was 100 and the “Ryegrass, Italian plant response rating” value (ryegrass, Italian [9]; Test C, 125 g ai/ha) was 90. The “Soybean plant response rating” value (soybean [10]; 500 g ai/ha) was 90, the “Soybean plant response rating” value (soybean [10]; Test C, 125 g ai/ha) was 40 and the “Wheat plant response rating” value (wheat [11]; 500 g ai/ha) was 50. For the same molecule, the “Wheat plant response rating” value (wheat [11]; Test C, 125 g ai/ha) was 20, the “Plant response rating, Barnyardgrass” value (barnyardgrass [12]; [24]) was 10 and the “Plant response rating, Barnyardgrass” value (barnyardgrass [12]; [25]) was 20. For the same molecule, the “Plant response rating, Blackgrass” value (blackgrass [13]; [24]) was 0, the “Plant response rating, Blackgrass” value (blackgrass [13]; [25]) was 20 and the “Plant response rating, Corn” value (corn [14]; [24]) was 10. The “Plant response rating, Corn” value (corn [14]; [25]) was 20, the “Plant response rating, Foxtail, Green” value (green foxtail [15]; [24]) was 30 and the “Plant response rating, Foxtail, Green” value (green foxtail [15]; [25]) was 40. The “Plant response rating, Kochia” value (kochia [16]; [24]) was 70, the “Plant response rating, Kochia” value (kochia [16]; [25]) was 90 and the “Plant response rating, Oat, Wild” value (oat, wild [17]; [24]) was 0. For the same molecule, the “Plant response rating, Oat, Wild” value (oat, wild [17]; [25]) was 50, the “Plant response rating, Pigweed, Palmer” value (pigweed, palmer [18]; [24]) was 80 and the “Plant response rating, Pigweed, Palmer” value (pigweed, palmer [18]; [25]) was 80. The “Plant response rating, Ragweed” value (ragweed [19]; [24]) was 30, the “Plant response rating, Ragweed” value (ragweed [19]; [25]) was 20 and the “Plant response rating, Ryegrass, Italian” value (ryegrass, Italian [20]; [24]) was 0. For the same molecule, the “Plant response rating, Ryegrass, Italian” value (ryegrass, Italian [20]; [25]) was 60, the “Plant response rating, Soybean” value (soybean [21]; [24]) was 100 and the “Plant response rating, Soybean” value (soybean [21]; [25]) was 100. For the same molecule, the “Plant response rating, Wheat” value (wheat [22]; [24]) was 20, the “Plant response rating, Wheat” value (wheat [22]; [25]) was 30 and the “Plant response rating, Galium” value (galium; [24]) was 70. The “Plant response rating, Galium” value (galium; [25]) was 80, the “Plant response rating, Horseweed” value (horseweed; [24]) was 20 and the “Plant response rating, Horseweed” value (horseweed; [25]) was 60. The “Plant response rating, Barnyardgrass (Flood)” value (barnyardgrass [23]) was 0, the “Plant response rating, Ducksalad (Flood)” value (ducksalad) was 0 and the “Plant response rating, Rice (Flood)” value (rice) was 0. For the same molecule, the “Plant response rating, Sedge, Umbrella (Flood)” value (sedge, umbrella) was 0.
